The results in this text go back to US20250376490A1, “C[…]-DERIVED PEPTIDE-NUCLEIC ACID HYBRID MOLECULE FOR TREATING INFECTION CAUSED BY MUTATED CORONAVIRUS” (priority 2022, published 2025).

In test [1] the test system is pseudotype SARS-COV-2. The test is classed as cell-based.
Test [2] concerns the target SARS-COV-2 RBD (Severe acute respiratory syndrome coronavirus 2, UniProt P0DTC2). The conditions noted are these: co-incubation with P05DHu and AM 122 antibodies.
Description: Specifically, after thermal denaturation and rapid cooling, they were co-incubated with 5 nM RBD beads (final volume: 100 μL) with gentle rotation for 1 hour at room temperature. Beads were washed three times, and resuspended in 100 μL of 1× PBSMT for analysis with CytoFLEX S (Beckman Coulter). The competitive RBD-binding fraction was calculated as the ratio of the competitive mean fluorescence intensity to the uncompetitive (free-binding) mean fluorescence intensity.
For test [3], the target named is RBD-hACE2 binding (Severe acute respiratory syndrome coronavirus 2, UniProt P0DTC2). As to conditions: 3 μM concentration.

Regarding R7-02 (LGKGDFRK), in test [1], the “infection rate with pseudotype SARS-COV-2 (percentage of GFP-expressing infected cells)” value is on record as 1.9% and the “neutralizing efficiency compared to other RBD binders” value is recorded as “significantly higher or comparable”. Also, the “RBD binding competition between R7-02 and antibodies” value in test [2] is “insignificant”.

LGKGDFR [LGKGDFR peptide]: the “infection rate with pseudotype SARS-COV-2 (percentage of GFP-expressing infected cells)” value in test [1] is 12.6%. In addition, in test [3], the “inhibition of RBD-hACE2 interaction” value turned out to be 11.69%.
